Data from PMC3259259 (Chemical Research in Toxicology, 2011).
Read-outs that look alike come from different tables or passages of the source.

Experiments:
[1] = Pol ι, 37 °C, cited from earlier work; for Kd: read-out: Kd (incoming nucleotide, Pol•DNA complex)
[2] = read-out: Kd (incoming nucleotide, Pol•DNA complex), Pol λ, 37 °C, cited from earlier work
[3] = read-out: Kd (incoming nucleotide, Pol•DNA complex), Pol η, 37 °C, cited from earlier work
[4] = Rev1, 37 °C, cited from earlier work; for Kd: read-out: Kd (incoming nucleotide, Pol•DNA complex)
[5] = read-out: Kd (incoming nucleotide, Pol•DNA complex), Pol β, 37 °C, cited from earlier work
[6] = read-out: Kd (incoming nucleotide, Pol•DNA complex), Pol κ, 37 °C, cited from earlier work
[7] = Single-turnover; parameters: species or system [13, 20]; conditions: Pol κ; for Kd: read-out: Kd (incoming nucleotide, Pol•DNA complex), 37 °C
[8] = Single-turnover; parameters: species or system [13, 20]; conditions: Rev1; for Kd: read-out: Kd (incoming nucleotide, Pol•DNA complex)
[9] = Single-turnover; parameters: species or system [13, 20]; conditions: read-out: Kd (incoming nucleotide, Pol•DNA complex), Pol η, 37 °C
[10] = Single-turnover; parameters: species or system [13, 20]; conditions: read-out: Kd (incoming nucleotide, Pol•DNA complex), Pol β, 37 °C
[11] = Single-turnover; parameters: species or system [13, 20]; conditions: Pol ι; for Kd: read-out: Kd (incoming nucleotide, Pol•DNA complex), 37 °C
[12] = Single-turnover; parameters: species or system [13, 20]; conditions: read-out: Kd (incoming nucleotide, Pol•DNA complex), Pol λ, 37 °C
[13] = read-out: Kd (incoming nucleotide, Pol•DNA complex); HIV-1 RT; opposite template dC; 37 °C; cited from earlier work
[14] = read-out: Kd (incoming nucleotide, Pol•DNA complex), Pol γ, 37 °C, cited from earlier work
[15] = read-out: Kd (incoming nucleotide, Pol•DNA complex); T7 exo; opposite template dT; 37 °C; cited from earlier work
[16] = Single-turnover kinetic assays, summary over the non-canonical human pols; parameters: species or system [13, 20]
[17] = Pols β, λ, η, ι, κ, Rev1; cited from earlier work

## Cc1cn([C@H]2C[C@H](O)[C@@H](COP(=O)(O)OP(=O)(O)OP(=O)(O)O)O2)c(=O)[nH]c1=O [dTTP]
[1]; opposite template dA
  Kd: 13 ± 1 µM
[2]; opposite template dA
  Kd: 2.6 ± 0.4 µM
[3]; opposite template dA
  Kd: 41 ± 5 µM
[4]; opposite template dA
  Kd: 6 ± 1 µM
[5]; opposite template dA
  Kd: 3.5 ± 0.5 µM
[6]; opposite template dA
  Kd: 11 ± 0.5 µM

## Nc1ncnc2c1ncn2CCOCP(=O)(O)OP(=O)(O)OP(=O)(O)O [PMEA-DP, diphosphate of 9-[2-(phosphonomethoxy)ethyl]adenine]
[7]; opposite template dT
  Decrease of rate of incorporation relative to dATP: 60 fold
  Ground-state binding affinity (1/Kd) weaker than dATP: 3 fold
  Kd: 23 ± 3 µM
[8]; opposite template dT
  Decrease of rate of incorporation relative to dATP: 4 fold
  Ground-state binding affinity (1/Kd) weaker than dATP: 60 fold
[8]; opposite template dT, 37 °C
  Kd: 120 ± 20 µM
[9]; opposite template dT
  Kd: 55 ± 18 µM
[10]; opposite template dT
  Kd: 65 ± 6 µM
[11]; opposite template dT
  Decrease of rate of incorporation relative to dATP: 30 fold
  Ground-state binding affinity (1/Kd) relative to dATP: unchanged
  Kd: 180 ± 40 µM
[12]; opposite template dT (21-19C-41merTG)
  Kd: 4.5 ± 0.3 µM

## Nc1nc2c(ncn2[C@H]2C[C@H](O)[C@@H](COP(=O)(O)OP(=O)(O)OP(=O)(O)O)O2)c(=O)[nH]1 [dGTP]
[7]; opposite template dC
  Kd: 10.6 ± 0.9 µM
[8]; opposite template dC, 37 °C
  Kd: 3.9 ± 0.8 µM
[2]; opposite template dC
  Kd: 2.1 ± 0.3 µM
[9]; opposite template dC
  Kd: 80 ± 10 µM
[10]; opposite template dC
  Kd: 8.7 ± 0.4 µM
[11]; opposite template dC
  Kd: 141 ± 8 µM
[13]
  Kd: 1.76 ± 0.51 µM

## Nc1ncnc2c1ncn2[C@H]1C[C@H](O)[C@@H](COP(=O)(O)OP(=O)(O)OP(=O)(O)O)O1 [dATP]
[1]; opposite template dT
  Kd: 260 ± 40 µM
[2]; opposite template dT
  Kd: 0.9 ± 0.3 µM
[14]; opposite template dT
  Kd: 0.8 ± 0.1 µM
[15]
  Kd: 8 ± 2 µM
[3]; opposite template dT
  Kd: 130 ± 30 µM
[4]; opposite template dT
  Kd: 2 ± 0.3 µM
[5]; opposite template dT
  Kd: 9.2 ± 1 µM
[6]; opposite template dT
  Kd: 7 ± 1 µM

## CC(Cn1cnc2c(N)ncnc21)OCP(=O)(O)OP(=O)(O)OP(=O)(O)O (stereo not drawn) [PMPA-DP, diphosphate of 9-[2-(phosphonomethoxy)propyl]adenine]
[1]; opposite template dT
  Kd (incoming nucleotide, Pol•DNA complex): No observed incorporation
  kp (maximum rate of incorporation): too inefficient to be observed
[2]; opposite template dT
  Kd: 3.7 ± 0.9 µM
[14]; opposite template dT
  Kd: 40.3 ± 5.7 µM
[15]
  Kd: 268 ± 39 µM
[3]; opposite template dT
  Kd: 90 ± 10 µM
[4]; opposite template dT
  Kd (incoming nucleotide, Pol•DNA complex): No observed incorporation
  kp (maximum rate of incorporation): too inefficient to be observed
[5]; opposite template dT
  Kd: 50 ± 10 µM
[6]; opposite template dT
  Kd: 3000 ± 2000 µM

## Nc1ccn([C@H]2C[C@H](O)[C@@H](COP(=O)(O)OP(=O)(O)OP(=O)(O)O)O2)c(=O)n1 [dCTP]
[1]; opposite template dG
  Kd: 50 ± 5 µM
[2]; opposite template dG
  Kd: 0.9 ± 0.1 µM
[14]; opposite template dG
  Kd: 1.1 ± 0.1 µM
[3]; opposite template dG
  Kd: 25 ± 4 µM
[4]; opposite template dG
  Kd: 2.2 ± 0.3 µM
[5]; opposite template dG
  Kd: 0.71 ± 0.04 µM
[6]; opposite template dG
  Kd: 32 ± 5 µM

## Cc1cn([C@@H]2C[C@@H](O)[C@H](COP(=O)(O)OP(=O)(O)OP(=O)(O)O)O2)c(=O)[nH]c1=O [L-TBV-TP, β-L-2′-deoxythymidine 5′-triphosphate]
[16]; Pols β, λ, η, ι, κ, Rev1, analog vs its natural dNTP, 37 °C
  Selection factors, range over the non-canonical human pols: greater than 8,000
[16]; pols other than Rev1
  Binding to the Pol•DNA complex weakened compared to dTTP, on average: 10 fold
[7]; opposite template dA
  Kd: 90 ± 20 µM
[8]; opposite template dA, 37 °C
  Kd (incoming nucleotide, Pol•DNA complex): No observed incorporation
[9]; opposite template dA
  Kd: 400 ± 100 µM
[10]; opposite template dA
  Kd: 11 ± 1 µM
[11]; opposite template dA
  Kd: 100 ± 30 µM
[12]; opposite template dA
  Kd: 53 ± 6 µM

## Nc1ccn([C@H]2CS[C@@H](COP(=O)(O)OP(=O)(O)OP(=O)(O)O)O2)c(=O)n1 [L-3TC-TP, β-L-2′,3′-dideoxy-3′-thiacytidine 5′-triphosphate]
[1]; opposite template dG
  Kd: 96 ± 8 µM
[2]; opposite template dG
  Kd: 0.106 ± 0.01 µM
[17]
  Decrease of Kd compared to dCTP, on average: 6 fold
[14]; opposite template dG
  Kd: 9.2 ± 0.9 µM
[3]; opposite template dG
  Kd: 3.3 ± 0.3 µM
[4]; opposite template dG
  Kd: 1.04 ± 0.1 µM
[5]; opposite template dG
  Kd: 0.18 ± 0.02 µM
[6]; opposite template dG
  Kd: 4 ± 0.5 µM

## C=C1[C@H](COP(=O)(O)OP(=O)(O)OP(=O)(O)O)[C@@H](O)C[C@@H]1n1cnc2c(=O)[nH]c(N)nc21 [ETV-TP, entecavir 5′-triphosphate]
[16]; Pols β, λ, η, ι, κ, Rev1
  Rate of incorporation slower than dGTP, on average: 120 fold
[16]; except for Rev1
  Binding affinity tighter than dGTP, on average: approximately 20 fold
[7]; opposite template dC
  Kd: 4.2 ± 0.1 µM
[8]; opposite template dC, 37 °C
  Kd: 56 ± 10 µM
[9]; opposite template dC
  Kd: 2.4 ± 0.4 µM
[10]; opposite template dC
  Kd: 0.26 ± 0.04 µM
[11]; opposite template dC
  Kd: 33 ± 5 µM
[13]
  Kd: 2.23 ± 0.67 µM
[12]; opposite template dC
  Kd: 0.09 ± 0.02 µM
